Structures can show the parent of a compound that is named as a salt. Where two headings read alike, the source gives them in different places.

For this test, the target named is SARS-CoV-2 3CLpro (Severe acute respiratory syndrome coronavirus 2, UniProt P0DTD1). Description: biochemical. Also on record: Replicate_1 / Replicate_2 / mean / mean (LOPAC_screen_w_protease): unit not given here. The note with it: for inhibition at 5 µM: 4 h; for mean (LOPAC screen with protease) / Replicate_1 (LOPAC screen with protease) / Replicate_2 (LOPAC screen with protease): primary screen at 5 µM. In kind it is biochemical.

Setting [1] is: LOPAC1280 primary screen with protease, 5 µM compound, mean of two replicates.
Where [2] appears, read: LOPAC1280 primary screen with protease, 5 µM compound, replicate 1.
The mark [3] stands for this setting: LOPAC1280 primary screen with protease, 5 µM compound, replicate 2.
The mark [4] stands for this setting: sheet LOPAC_screen_w_protease, primary screen with protease, compound at 5 µM, mean of two replicates.
Setting [5] is: sheet LOPAC_screen_w_protease, primary screen with protease, compound at 5 µM, replicate 1.
Where [6] appears, read: sheet LOPAC_screen_w_protease, primary screen with protease, compound at 5 µM, replicate 2.
[7] abbreviates: sheet LOPAC_screen_w_protease, mean of two replicates.
Setting [8] is: sheet LOPAC_screen_w_protease, replicate 1.
Where [9] appears, read: sheet LOPAC_screen_w_protease, replicate 2.
Where [10] appears, read: LOPAC1280 primary screen with protease, 5 µM compound, mean of the two replicates.

As for `CCCn1c(C)c(C(=O)c2cccc3ccccc23)c2ccccc21` [JWH-015], the “mean (LOPAC_screen_w_protease)” value under setting [1] was 1.386. In addition, under setting [2], the “Replicate_1 (LOPAC_screen_w_protease)” value is 1.748. The “Replicate_2 (LOPAC_screen_w_protease)” value under setting [3] is listed as 1.024.

As to `CC(C)NCC(O)COc1ccc(CCOCC2CC2)cc1` (stereo not drawn) [Betaxolol hydrochloride], the inhibition at 5 µM is 0.905% (read-out: Replicate_1), 3.87% (read-out: Replicate_2) and 2.39% (read-out: mean).

On to `O=C1Nc2ccc(I)cc2/C1=C/c1cc(Br)c(O)c(Br)c1` [GW5074], for which the mean (sheet LOPAC_screen_w_protease, LOPAC1280 primary screen with protease, 5 µM compound, mean of the two replicates) worked out at 5.786. Under “sheet LOPAC_screen_w_protease, LOPAC1280 primary screen with protease, 5 µM compound, replicate 1”, the Replicate_1 is 6.4599. Also, the Replicate_2 (sheet LOPAC_screen_w_protease, LOPAC1280 primary screen with protease, 5 µM compound, replicate 2) was 5.112.

On to `O=C(O)[C@H]1CCCN[C@H]1C(=O)O` (racemic) [(±)-cis-Piperidine-2,3-dicarboxylic acid], for which, under setting [1], the “mean (LOPAC_screen_w_protease)” value came to 1.527. Besides, the “Replicate_1 (LOPAC_screen_w_protease)” value under setting [2] is 0.9979. The “Replicate_2 (LOPAC_screen_w_protease)” value under setting [3] was determined as 2.056.

The molecule `CCN(CC)c1ncnc2c1ncn2[C@@H]1O[C@H](COP(=O)([O-])OP(=O)([O-])C(Br)(Br)P(=O)([O-])O)[C@@H](O)[C@H]1O.[Na+].[Na+].[Na+]` [ARL 67156 trisodium salt] had a mean under setting [4] of 2.893. Moreover, under setting [5], the Replicate_1 is on record as 2.692. Also, under setting [6], the Replicate_2 worked out at 3.094.

In turn, `NC(=O)NO` [Hydroxyurea] had a mean under setting [4] of 2.8429. Moreover, the Replicate_1 under setting [5] is 4.9936. In addition, the Replicate_2 under setting [6] amounted to 0.6922.

In the case of `NS(=O)(=O)c1cc2c(cc1Cl)N=CNS2(=O)=O` [Chlorothiazide], the inhibition at 5 µM runs as follows: (sheet LOPAC_screen_w_protease, LOPAC1280 at 5 µM, mean of two replicates, read-out: mean) 0.892%; (sheet LOPAC_screen_w_protease, LOPAC1280 at 5 µM, replicate 1, read-out: Replicate_1) 1.61%; (sheet LOPAC_screen_w_protease, LOPAC1280 at 5 µM, replicate 2, read-out: Replicate_2) 0.17%.

Take `Cl.OCc1c[nH]cn1` [4-Imidazolemethanol hydrochloride]: the mean (sheet LOPAC_screen_w_protease, LOPAC1280 at 5 µM, mean of two replicates) stood at 1.065. Also, the Replicate_1 (sheet LOPAC_screen_w_protease, LOPAC1280 at 5 µM, replicate 1) was found to be 2.558. For the same molecule, the Replicate_2 (sheet LOPAC_screen_w_protease, LOPAC1280 at 5 µM, replicate 2) is recorded as -0.4285.

For `O=C(O)/C=C\C(=O)O.O=C(O)/C=C\C(=O)O.c1ccc2nc(N3CCNCC3)ccc2c1` [Quipazine dimaleate], the mean (sheet LOPAC_screen_w_protease, LOPAC1280 primary screen at 5 µM, with protease, mean of the two replicates) turned out to be 0.5004. Moreover, the Replicate_1 (sheet LOPAC_screen_w_protease, LOPAC1280 primary screen at 5 µM, with protease, replicate 1) stood at 0.6596. Also, the Replicate_2 (sheet LOPAC_screen_w_protease, LOPAC1280 primary screen at 5 µM, with protease, replicate 2) was determined as 0.3411.

For `C[C@@H]1OC[C@H](C[N+](C)(C)C)O1.[I-]` [(+)-cis-Dioxolane iodide], under setting [7], the “mean (LOPAC screen with protease)” value worked out at 7.2322. Further, the “Replicate_1 (LOPAC screen with protease)” value under setting [8] was determined as 5.683. In addition, the “Replicate_2 (LOPAC screen with protease)” value under setting [9] was 8.781.

For the molecule `Cc1nc2c([nH]1)c(=O)n(C)c(=O)n2Cc1ccco1` [Furafylline], the inhibition at 5 µM (LOPAC1280 primary screen with protease, 5 µM compound, replicate 1, read-out: Replicate_1 (LOPAC_screen_w_protease)) worked out at 3.1% and the inhibition at 5 µM (LOPAC1280 primary screen with protease, 5 µM compound, replicate 2, read-out: Replicate_2 (LOPAC_screen_w_protease)) was -0.41%. Moreover, under setting [1], the “mean (LOPAC_screen_w_protease)” value stood at 1.344.

With `COc1ccc(CCN(C)CCCC(C#N)(c2cc(OC)c(OC)c(OC)c2)C(C)C)cc1OC.Cl` (racemic) [(±)-Methoxyverapamil hydrochloride], the “mean (LOPAC_screen_w_protease)” value under setting [10] worked out at 2.071. Moreover, under setting [2], the “Replicate_1 (LOPAC_screen_w_protease)” value was found to be 2.317. Moreover, under setting [3], the “Replicate_2 (LOPAC_screen_w_protease)” value came out at 1.826.

As for `C=C1C(=O)O[C@H]2[C@H]1CC/C(C)=C/CC[C@@]1(C)O[C@@H]21` [Parthenolide], the inhibition at 5 µM is, setting by setting: (sheet LOPAC_screen_w_protease, primary screen of LOPAC1280 at 5 µM with protease, mean of the two replicates, read-out: mean) 3.43%; (sheet LOPAC_screen_w_protease, primary screen of LOPAC1280 at 5 µM with protease, replicate 1, read-out: Replicate_1) 3.99%; (sheet LOPAC_screen_w_protease, primary screen of LOPAC1280 at 5 µM with protease, replicate 2, read-out: Replicate_2) 2.86%.

As for `CCCCOc1cc(CC2CNC(=O)N2)ccc1OC` (stereo not drawn) [Ro 20-1724], under setting [10], the “mean (LOPAC_screen_w_protease)” value is recorded as 1.901. For the same molecule, the “Replicate_1 (LOPAC_screen_w_protease)” value under setting [2] came to 0.9131. Also, under setting [3], the “Replicate_2 (LOPAC_screen_w_protease)” value amounted to 2.888.

As for `CC[N+](C)(CC)CC(=O)Nc1c(C)cccc1C.[Cl-]` [Lidocaine N-methyl hydrochloride], the “mean (LOPAC_screen_w_protease)” value under setting [10] is recorded as 2.035. Moreover, the “Replicate_1 (LOPAC_screen_w_protease)” value under setting [2] came to 4.235. In addition, the “Replicate_2 (LOPAC_screen_w_protease)” value under setting [3] was -0.1654.

`Br.CN1CCc2cc(O)c(O)cc2C(c2ccccc2)C1` (stereo not drawn) [SKF 75670 hydrobromide]: the “mean (LOPAC screen with protease)” value under setting [7] was determined as 25.5455. Besides, the “Replicate_1 (LOPAC screen with protease)” value under setting [8] is reported as 25.015. Further, under setting [9], the “Replicate_2 (LOPAC screen with protease)” value was 26.0759.

The values above are taken from paper PMC7587356, “High-Throughput Screening for Inhibitors of the SARS-CoV-2 Protease Using a FRET-Biosensor” (Molecules, 2020).
